Results as given in patent US11166924B2, “N-methyl-d-aspartate receptor allosteric modulators and methods for their use” (Qingdao Primedicine Pharmaceutical Company, Ltd., priority 2016, dated 2021).

Assays:
[1] = target: T1, GluN2A NMDARs in GluN2B-lacking neurons (Mus musculus, UniProt P35436+P35438); test: Whole-cell recordings in GluN2B-knockout cortical neurons; format: cell-based; conditions: compared to NMDA control
T1 construct: endogenous in cells; host or cells: primary cortical neurons from GluN2B-knockout mouse embryos

GABAR = test: GABA-induced currents in cultured hippocampal neurons; format: cell-based
Experimental: Whole cell patch-clamp recordings were performed under voltage-clamp mode using an Axopatch 200B or 1D patch-clamp amplifier (Molecular Devices). Whole-cell currents were recorded at a holding potential of −60 mV unless indicated elsewhere, and signals were filtered at 2 kHz, digitized at 10 kHz (Digidata 1322A). Recording pipettes (3-5 MΩ) were filled with the intracellular solution that contained (mM): CsCl 140, HEPES 10, Mg-ATP 4, QX-314 5, pH 7.20; osmolarity, 290-295 mOsm. BAPTA (10 mM) was added in the intracellular solution (otherwise specified). The coverslips were continuously superfused with the extracellular solution containing (mM): NaCl 140, KCl 5.4, HEPES 10, CaCl2 1.3, glucose 20, pH 7.4; osmolarity, 305-315 mOsm. NMDA, GABA or AMPA induced currents were either applied by NMDA, GABA, AMPA either through perfusion fast-step (Warner Instruments). […]
Next, the inventor evaluated the selectivity profile for Npam02 on two other key ionotropic receptors of the central nervous system (CNS): α-amino-3-hydroxy-5-methyl-4-isoxazolepropionic acid receptor AMPAR, which are known to be a non-NMDA type ionotropic transmembrane receptor for glutamate that mediates fast synaptic transmission in the central nervous system (CNS) and GABA receptors which are the principal inhibitory ligand-gated ion channel receptor. […]

GluN1/GluN2A^F115S = target: T2, GluN1/GluN2A^F115S (Rattus norvegicus, UniProt P35439+Q00959, F115S); test: Patch clamp in HEK293 cells expressing mutant GluN1/GluN2A F115S; format: cell-based
T2 construct: expressed in transfected cells; host or cells: HEK293
Experimental: Whole cell patch-clamp recordings were performed under voltage-clamp mode using an Axopatch 200B or 1D patch-clamp amplifier (Molecular Devices). Whole-cell currents were recorded at a holding potential of −60 mV unless indicated elsewhere, and signals were filtered at 2 kHz, digitized at 10 kHz (Digidata 1322A). Recording pipettes (3-5 MΩ) were filled with intracellular solution containing (mM): CsCl 140, HEPES 10, Mg-ATP 4, QX-314 5, pH 7.20; osmolarity, 290-295 mOsm. BAPTA (10 mM) was added in the intracellular solution (unless otherwise specified). The coverslips were continuously superfused with extracellular solution containing (mM): NaCl 140, KCl 5.4, HEPES 10, CaCl2 1.3, glucose 20, pH 7.4; osmolarity, 305-315 mOsm. NMDA-induced currents were applied by NMDA through perfusion fast-step (Warner Instruments). With perfusion fast-step system, NMDA application was achieved by using a two-square barrel glass tubing and depending on the age of the cultured neurons, CNQX (10 μM), TTX (0.5 μM) or BIC (10 μM) were added in the extracellular solution to minimize the activation of ionotropic glutamate receptors and voltage-gated sodium channels, respectively. All experiments were performed at room temperature. Recordings from at least six HEK293 cells/neurons were performed for all active compounds. […]

[2] = tested on: post-stroke locomotory behavior; test: Neurological behavioral tests after stroke; format: in vivo, rat; conditions: 28 days after stroke onset, versus untreated control rats
Experimental: To assess functional recovery of neural circuits damaged by ischemic insult, three locomotor activity (sensorimotor) deficit modalities were tested: 1) vertical activity (the total number of beam interruptions that occurred in the vertical sensor); 2) number of vertical movements (number of animal rears); and 3) vertical movement time (the amount of time, in seconds, the animal rears) using the VersaMax Animal Activity Monitor (Accuscan Instruments). An ischemic rat was placed into the recording chamber during the ‘dark’ phase of the day/night cycle, and vertical movement time (seconds) was automatically recorded by computer over a 2 h period. The total length of vertical movement represents the recovery of locomotor circuits injured by ischemic stroke.
Neurobehavioral assays were performed to assess functional recovery of neurons post-stroke.

T1 sequence (P35436 23-1464, other chains not shown): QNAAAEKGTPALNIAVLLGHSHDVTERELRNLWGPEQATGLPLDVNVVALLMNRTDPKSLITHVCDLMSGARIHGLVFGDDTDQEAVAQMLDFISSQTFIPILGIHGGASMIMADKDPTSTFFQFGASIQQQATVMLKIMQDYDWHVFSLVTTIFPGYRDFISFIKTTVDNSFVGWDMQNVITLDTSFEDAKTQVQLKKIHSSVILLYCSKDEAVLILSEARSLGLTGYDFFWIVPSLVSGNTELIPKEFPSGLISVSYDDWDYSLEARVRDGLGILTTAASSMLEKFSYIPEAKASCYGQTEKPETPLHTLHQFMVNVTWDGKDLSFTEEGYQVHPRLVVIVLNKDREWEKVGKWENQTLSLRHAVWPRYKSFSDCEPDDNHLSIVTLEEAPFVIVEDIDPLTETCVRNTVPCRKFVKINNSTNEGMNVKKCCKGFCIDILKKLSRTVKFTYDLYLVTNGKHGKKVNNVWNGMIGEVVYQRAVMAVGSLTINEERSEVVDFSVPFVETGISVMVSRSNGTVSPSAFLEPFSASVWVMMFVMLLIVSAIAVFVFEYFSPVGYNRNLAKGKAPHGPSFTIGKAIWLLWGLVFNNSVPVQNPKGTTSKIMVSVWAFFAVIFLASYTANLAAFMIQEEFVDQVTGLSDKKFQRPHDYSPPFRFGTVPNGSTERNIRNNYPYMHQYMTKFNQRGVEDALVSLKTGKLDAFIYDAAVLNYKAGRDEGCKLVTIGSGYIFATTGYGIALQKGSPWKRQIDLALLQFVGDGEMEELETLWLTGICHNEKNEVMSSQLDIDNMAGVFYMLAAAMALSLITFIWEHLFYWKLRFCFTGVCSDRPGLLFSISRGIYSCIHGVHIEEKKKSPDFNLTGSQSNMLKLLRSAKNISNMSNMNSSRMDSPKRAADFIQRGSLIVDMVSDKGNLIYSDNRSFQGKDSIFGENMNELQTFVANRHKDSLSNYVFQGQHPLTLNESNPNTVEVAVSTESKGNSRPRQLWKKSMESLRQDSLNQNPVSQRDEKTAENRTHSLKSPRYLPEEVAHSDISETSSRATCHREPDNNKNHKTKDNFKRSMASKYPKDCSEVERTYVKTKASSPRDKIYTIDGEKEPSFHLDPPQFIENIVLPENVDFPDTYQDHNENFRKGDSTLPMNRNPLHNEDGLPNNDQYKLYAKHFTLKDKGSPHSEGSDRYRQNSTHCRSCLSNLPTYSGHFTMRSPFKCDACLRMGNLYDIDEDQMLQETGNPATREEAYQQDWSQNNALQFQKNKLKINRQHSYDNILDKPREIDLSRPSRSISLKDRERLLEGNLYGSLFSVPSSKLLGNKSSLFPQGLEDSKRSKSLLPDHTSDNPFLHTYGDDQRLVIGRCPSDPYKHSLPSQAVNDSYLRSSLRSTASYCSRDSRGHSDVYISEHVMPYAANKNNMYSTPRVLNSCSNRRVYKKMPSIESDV
T2 sequence (Q00959 23-1464 F115S, other chains not shown): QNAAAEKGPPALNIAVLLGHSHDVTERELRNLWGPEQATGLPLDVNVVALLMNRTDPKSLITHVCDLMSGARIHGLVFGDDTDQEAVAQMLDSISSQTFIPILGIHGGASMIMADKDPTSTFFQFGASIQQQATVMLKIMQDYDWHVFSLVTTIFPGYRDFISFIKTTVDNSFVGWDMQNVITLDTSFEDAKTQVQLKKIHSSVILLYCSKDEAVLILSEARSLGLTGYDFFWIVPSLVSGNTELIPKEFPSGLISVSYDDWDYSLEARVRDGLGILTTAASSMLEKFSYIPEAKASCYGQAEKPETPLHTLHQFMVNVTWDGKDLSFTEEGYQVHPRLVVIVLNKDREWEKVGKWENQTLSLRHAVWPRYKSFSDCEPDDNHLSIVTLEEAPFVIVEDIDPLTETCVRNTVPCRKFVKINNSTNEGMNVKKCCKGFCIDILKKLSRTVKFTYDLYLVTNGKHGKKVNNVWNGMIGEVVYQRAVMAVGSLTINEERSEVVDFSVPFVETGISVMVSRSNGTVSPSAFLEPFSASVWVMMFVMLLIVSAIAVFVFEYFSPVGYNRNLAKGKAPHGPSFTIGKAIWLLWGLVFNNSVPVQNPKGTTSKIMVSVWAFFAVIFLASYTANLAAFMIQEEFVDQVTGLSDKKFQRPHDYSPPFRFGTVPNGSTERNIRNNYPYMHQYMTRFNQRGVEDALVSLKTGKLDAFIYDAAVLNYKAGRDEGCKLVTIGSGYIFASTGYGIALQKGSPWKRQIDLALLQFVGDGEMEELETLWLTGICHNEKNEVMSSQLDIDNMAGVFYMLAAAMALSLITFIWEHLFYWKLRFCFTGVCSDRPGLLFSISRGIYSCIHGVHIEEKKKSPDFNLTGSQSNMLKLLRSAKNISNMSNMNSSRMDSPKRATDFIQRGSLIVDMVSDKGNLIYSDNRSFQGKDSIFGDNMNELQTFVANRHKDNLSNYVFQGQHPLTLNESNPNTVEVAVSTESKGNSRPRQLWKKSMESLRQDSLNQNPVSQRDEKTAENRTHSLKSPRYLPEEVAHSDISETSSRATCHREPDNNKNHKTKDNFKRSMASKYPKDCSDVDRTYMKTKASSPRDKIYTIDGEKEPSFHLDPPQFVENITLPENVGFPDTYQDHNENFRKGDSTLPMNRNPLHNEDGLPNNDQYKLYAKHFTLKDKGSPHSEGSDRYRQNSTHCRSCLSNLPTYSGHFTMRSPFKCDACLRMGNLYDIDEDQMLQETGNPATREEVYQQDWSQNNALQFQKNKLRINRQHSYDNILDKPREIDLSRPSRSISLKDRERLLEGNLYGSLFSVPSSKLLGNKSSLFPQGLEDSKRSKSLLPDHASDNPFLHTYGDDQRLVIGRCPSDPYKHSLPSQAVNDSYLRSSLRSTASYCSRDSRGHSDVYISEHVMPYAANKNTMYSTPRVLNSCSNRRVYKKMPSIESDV

Structure (SMILES)	Positive modulation of NMDAR currents ([1]; 100 μM bath, NMDA 20 μM, glycine 2 μM)	Potentiation effect with co-applied ifenprodril (IF) ([1]; GluN2B-knockout neurons)	NMDAR current change with NVP-AAM007 (0.2 μM) and Npam02 ([1]; Npam02 100 μM)	Effect on GABAR mediated currents (GABAR)	Relative potentiation (GluN1/GluN2A^F115S; Table 3)	Net Difference potentiation (GluN1/GluN2A^F115S; normalized to wild-type)	Post-stroke locomotory behavior [2]
COc1cccc(/C=N/NC(=O)c2ccccc2C)c1O [Npam02, (E)-N′-(2-hydroxy-3-methoxybenzylidene)-2-methylbenzohydrazide]	44.72±4.29%	42.22±4.03%	88.87±3.45%	no observable effects	–	–	–
CCOc1cc(Cl)c(Cl)c(/C=N/NC(=O)c2ccccc2Br)c1O [Npam43, (E)-2-bromo-N′-(2,3-dichloro-5-ethoxy-6-hydroxybenzylidene)benzohydrazide]	–	–	–	–	68.1 ± 14.1%	−67.4±11.8%	increased post-stroke locomotory behavior
